Test results: ChEMBL document CHEMBL1687773 (Antimicrob Agents Chemother, 2010)

Key:
[1] = test system: Human immunodeficiency virus 1; assay: Ratio of EC50 for wild type HIV1 NL4-3 to EC50 for HIV1 NL4-3 harboring reverse transcriptase F227C mutant; format: functional
[2] = test system: Human immunodeficiency virus 1; assay: Antiviral activity against wild type HIV1 NL4-3 infected in human HeLaP4 cells assessed as inhibition of viral replication after 5 days by beta-galactosidase reporter assay; format: functional, organism-based; settings: Human immunodeficiency virus 1, NL4-3, HeLaP4, 120 h

CCc1nn(CCO)c(CC)c1Oc1cc(C#N)cc(C#N)c1 [LERSIVIRINE]
Ratio EC50 [1]: 55
EC50 [2]: 3.96 nM
